The nature of data set [1]: Chemical stability test of crystal form under storage conditions. It counts as physicochemical. Conditions: all storage conditions, compared with the sample. The method, then:
The stability of the crystal form of the present invention was examined under various storage conditions. After storage, the residual ratio (%) of each of the samples stored under the respective conditions with respect to the area percentage of the sample stored at −20° C. was calculated by HPLC. Further, by using a powder X-ray diffraction spectrum, peaks were compared with those of the sample. The appearance was observed by visual inspection and compared with that of the sample.
<Storage Conditions and Sampling Time>
25° C.-60% RH (opened): 3 months
40° C.-75% RH (opened): 3 months
2500 Lux: 20D (shading, transparent)

The next data set deals with T1, Human KCNQ2/3 (Homo sapiens, UniProt O43525+O43526).
T1 construct: expressed in transfected cells; host or cells: CHO-DHFR- cells
T1 sequence (O43526 whole entry): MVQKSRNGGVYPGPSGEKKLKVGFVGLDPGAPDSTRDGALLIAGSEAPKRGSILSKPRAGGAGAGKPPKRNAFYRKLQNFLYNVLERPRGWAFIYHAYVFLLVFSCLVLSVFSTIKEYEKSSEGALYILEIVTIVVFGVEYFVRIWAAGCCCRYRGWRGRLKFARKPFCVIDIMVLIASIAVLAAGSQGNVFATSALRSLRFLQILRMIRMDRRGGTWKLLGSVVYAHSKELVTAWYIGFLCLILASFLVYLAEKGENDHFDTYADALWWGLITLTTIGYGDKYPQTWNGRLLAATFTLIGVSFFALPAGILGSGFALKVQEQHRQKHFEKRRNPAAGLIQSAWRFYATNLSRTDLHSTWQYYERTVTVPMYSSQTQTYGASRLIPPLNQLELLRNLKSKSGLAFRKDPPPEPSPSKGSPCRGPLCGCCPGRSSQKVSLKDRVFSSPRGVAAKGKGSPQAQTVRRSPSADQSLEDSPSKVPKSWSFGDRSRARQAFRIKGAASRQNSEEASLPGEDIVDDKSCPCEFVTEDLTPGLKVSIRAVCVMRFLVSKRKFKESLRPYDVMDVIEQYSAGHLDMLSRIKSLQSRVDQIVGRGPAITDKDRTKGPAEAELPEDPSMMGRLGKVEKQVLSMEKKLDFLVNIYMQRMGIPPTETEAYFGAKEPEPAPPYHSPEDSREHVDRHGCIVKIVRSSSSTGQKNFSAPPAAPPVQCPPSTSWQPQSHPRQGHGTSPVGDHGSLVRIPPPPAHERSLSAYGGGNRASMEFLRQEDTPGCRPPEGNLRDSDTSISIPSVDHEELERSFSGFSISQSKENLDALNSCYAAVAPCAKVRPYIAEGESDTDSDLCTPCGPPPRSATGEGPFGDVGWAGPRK
T1 sequence (O43525 whole entry): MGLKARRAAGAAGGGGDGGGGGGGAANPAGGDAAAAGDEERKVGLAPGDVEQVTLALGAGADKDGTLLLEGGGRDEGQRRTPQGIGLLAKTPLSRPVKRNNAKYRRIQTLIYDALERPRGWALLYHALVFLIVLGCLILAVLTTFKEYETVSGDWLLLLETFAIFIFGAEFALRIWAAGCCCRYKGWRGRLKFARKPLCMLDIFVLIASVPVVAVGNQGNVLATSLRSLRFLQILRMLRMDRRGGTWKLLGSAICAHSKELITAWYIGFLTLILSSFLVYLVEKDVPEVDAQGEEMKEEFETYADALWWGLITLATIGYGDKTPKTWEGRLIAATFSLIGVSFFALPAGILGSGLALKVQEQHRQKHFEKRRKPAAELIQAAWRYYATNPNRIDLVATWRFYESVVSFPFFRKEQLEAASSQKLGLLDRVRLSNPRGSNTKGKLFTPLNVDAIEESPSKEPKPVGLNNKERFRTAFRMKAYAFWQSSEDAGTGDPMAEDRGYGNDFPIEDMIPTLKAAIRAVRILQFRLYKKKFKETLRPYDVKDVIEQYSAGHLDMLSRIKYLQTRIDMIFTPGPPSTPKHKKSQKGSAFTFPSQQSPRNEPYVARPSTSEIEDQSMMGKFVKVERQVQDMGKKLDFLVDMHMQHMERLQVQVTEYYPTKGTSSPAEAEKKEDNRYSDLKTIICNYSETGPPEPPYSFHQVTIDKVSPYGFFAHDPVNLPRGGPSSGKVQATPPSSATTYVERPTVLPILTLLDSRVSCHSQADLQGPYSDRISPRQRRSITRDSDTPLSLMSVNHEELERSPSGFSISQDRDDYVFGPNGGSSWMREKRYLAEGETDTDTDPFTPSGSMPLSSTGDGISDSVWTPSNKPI
Put plainly: Opening action with respect to KCNQ2/3 channel by depolarization stimulation (thallium influx, FLIPR). The format is cell-based. Conditions: human KCNQ2/3 expressing CHO-DHFR- cells; concentration giving 50% of maximum reaction of retigabine (10 μM); 5 mM potassium and 0.5 mM thallium; read-out: opening action (ECrtg50 value) with respect to the KCNQ2/3 channel. The method, then:
Human KCNQ2/3 expression cells (CHO-DHFR-cells) were seeded in each well of a 384-well plate (collagen-coated, black, clear bottom) at 0.5×10^4 cells/50 μL per well and cultured in a MEM ALPHA medium (containing 10 vol % inactivated (56° C., 30 min) fetal bovine serum, 100 IU/mL penicillin, 100 μg/mL streptomycin, and 2 mM L-glutamine) at 37° C. in 5% CO2 for 18 to 24 hours. After the medium in the plate was removed, incubation (room temperature, 60 minutes, shading) was performed in a loading buffer (prepared by the method described in the manual of FluxOR Thallium Detection Kit (Invitrogen, F10016, F10017)). A KCNQ2/3 channel opening action (thallium influx into cells) by depolarization stimulation (5 mM potassium and 0.5 mM thallium) was measured by FLIPR TETRA (Molecular Devices). The compound I was treated 5 minutes before the depolarization stimulation, and the reaction induced by the depolarization stimulation was measured over time for 180 seconds. The channel opening action of the compound I was evaluated based on the change amount of the fluorescence intensity from the time before the depolarization stimulation to the time after the elapse of 180 seconds, and the concentration (ECrtg50) satisfying 50% of the fluorescence intensity change of a maximum reaction (in the treatment at 10 μM) of retigabine under the conditions of this experiment was calculated.

A further data set can be described thus: Solubility test. The format is physicochemical. The settings on record: aqueous buffer, kinetic from dmso stock, Japanese Pharmacopoeia dissolution test second solution (pH 6.8), room temperature, quantification range 5 to 100 μM. How it is done:
A calibration curve solution was prepared at 0.1, 0.4, and 2 μM by diluting a test substance (a 10 mM DMSO solution) with acetonitrile and adding acetonitrile containing an internal standard substance (candesartan).
A sample solution was prepared as follows. 5 μL of the compound I (a 10 mM DMSO solution) was added to 495 μL of the Japanese Pharmacopoeia dissolution test second solution (pH: 6.8), followed by stirring at room temperature for 5 hours. Then, the solution was transferred to a solubility filter plate and subjected to suction filtration. The filtrate (20 μL) was diluted with acetonitrile, followed by adding acetonitrile containing an internal standard substance (candesartan).
Each of the calibration curve and sample solutions (5 μL) was injected into LC-MS/MS (Discovery Max, manufactured by Thermo Scientific, Inc.) and subjected to quantification (quantification range: 5 to 100 μM). The solubility in the case where the value equal to or less than the quantification range was obtained was defined as <5 μM, and the solubility in the case where the value equal to or more than the quantification range was obtained was defined as […].

Data set [2] is described as follows: Water vapor adsorption/desorption isotherm measurement. The format is physicochemical. The settings on record: 25° C., relative humidity of 50% RH or more, based on mass when dried (0% RH). How it is done: (3) Water Vapor Adsorption/Desorption Isotherm Measurement
Device: DVS Intrinsic, manufactured by SMS Co., Ltd.
Change in relative humidity: 0% to 95% (5% STEP)
STEP transition criterion: percent change in weight: 0.002%/min
A change in mass when the humidity was changed in a stepwise manner (relative humidity: from 0% RH to 95% RH) at 25° C. was recorded over time, and an equilibrium mass at each humidity was determined. Subsequently, based on the mass when dried (0% RH), the percent change in mass at each humidity and the hydration number were determined.

Data set [3] in a line: Evaluation of stability in human liver microsomes. The format is in vitro ADME. The settings on record: 0.5 mg/mL human liver microsomes, NADPH, 37° C., 15 minutes, 5 μmol/L. How it is done:
A test compound (a 10 mmol/L DMSO solution, 5 μL) was diluted with a 50% aqueous acetonitrile solution (195 μL), whereby a 0.25 mmol/L solution was prepared.
To a reaction vessel preheated to 37° C., 0.5 mg/mL of human liver microsomes (XenoTech, LLC) and 245 μL of a 0.1 M phosphate buffer solution (pH 7.4) containing NADPH co-factor (BD Biosciences) were added, followed by preincubation for 5 minutes, and thereafter, the above-prepared test compound solution (5 μL) was added thereto to start a reaction (final concentration: 5 μmol/L). Immediately after the start, a 20 μL portion was collected and added to 180 μL of acetonitrile containing an internal standard substance (warfarin) to stop the reaction. A 20 μL portion of this solution was stirred with 180 μL of a 50% aqueous acetonitrile solution on a plate equipped with a deproteinization filter, followed by suction filtration, and the filtrate was used as a standard sample.
After the above-prepared reaction solution was incubated at 37° C. for 15 minutes, a 20 μL portion of the solution was added to 180 μL of cooled acetonitrile (containing warfarin serving as an internal standard substance) to stop the reaction. […]
A residual ratio (%) was calculated as follows. […]
In general terms: Liver microsomes are a subcellular fraction often used to study metabolism.

Data set [4] relates to bladder extracted from rat. Put plainly: Relaxing action on bladder extracted from rat (Magnus test, carbachol contraction). Conditions: concentration at which percent change in tension is −20%; carbachol 1 μM contraction; female Wistar rat bladder strip. How it is done: Female Jcl:Wistar rats (CLEA Japan, Inc., body weight at use: 170 to 200 g) were anesthetized by intraperitoneal administration of about 40 mg/kg of pentobarbital (Somnopentyl, Schering Plough Animal Health Corporation), and killed by bloodletting. The bladder was extracted by abdominal incision and immediately thereafter immersed in ice-cooled Krebs buffer (Krebs Ringer bicarbonate buffer (Sigma-Aldlich Co. LLC) supplemented with sodium hydrogen carbonate (final concentration: 15 mM) and calcium chloride (final concentration: 2.5 mM)) saturated with a mixed gas (95% O2, 5% CO2).
The bladder body extracted from each rat was cut into an oblong strip shape (about 10×3 mm), whereby a specimen was prepared on ice. Immediately thereafter, the specimen was suspended in a Magnus tube filled with Krebs buffer (37° C.) bubbled with the mixed gas while applying a tension load of 500 mg thereto. Incidentally, the specimen was prepared within 24 hours after extracting the tissue. […]
The tension (mg) in the extracted bladder was used as an evaluation item. The tension was read using analysis software WAVE THERMO 1000. […] The percent change in tension (%) is calculated according to the following formula. […]
The value at which the percent change in tension (%) was −20% was calculated as IC20 and used as an index of the relaxing action on the extracted bladder.

The target of another data set is T2, hERG channel (Homo sapiens, UniProt Q12809).
T2 construct: expressed in transfected cells; host or cells: HEK293 cells
T2 sequence (Q12809 whole entry): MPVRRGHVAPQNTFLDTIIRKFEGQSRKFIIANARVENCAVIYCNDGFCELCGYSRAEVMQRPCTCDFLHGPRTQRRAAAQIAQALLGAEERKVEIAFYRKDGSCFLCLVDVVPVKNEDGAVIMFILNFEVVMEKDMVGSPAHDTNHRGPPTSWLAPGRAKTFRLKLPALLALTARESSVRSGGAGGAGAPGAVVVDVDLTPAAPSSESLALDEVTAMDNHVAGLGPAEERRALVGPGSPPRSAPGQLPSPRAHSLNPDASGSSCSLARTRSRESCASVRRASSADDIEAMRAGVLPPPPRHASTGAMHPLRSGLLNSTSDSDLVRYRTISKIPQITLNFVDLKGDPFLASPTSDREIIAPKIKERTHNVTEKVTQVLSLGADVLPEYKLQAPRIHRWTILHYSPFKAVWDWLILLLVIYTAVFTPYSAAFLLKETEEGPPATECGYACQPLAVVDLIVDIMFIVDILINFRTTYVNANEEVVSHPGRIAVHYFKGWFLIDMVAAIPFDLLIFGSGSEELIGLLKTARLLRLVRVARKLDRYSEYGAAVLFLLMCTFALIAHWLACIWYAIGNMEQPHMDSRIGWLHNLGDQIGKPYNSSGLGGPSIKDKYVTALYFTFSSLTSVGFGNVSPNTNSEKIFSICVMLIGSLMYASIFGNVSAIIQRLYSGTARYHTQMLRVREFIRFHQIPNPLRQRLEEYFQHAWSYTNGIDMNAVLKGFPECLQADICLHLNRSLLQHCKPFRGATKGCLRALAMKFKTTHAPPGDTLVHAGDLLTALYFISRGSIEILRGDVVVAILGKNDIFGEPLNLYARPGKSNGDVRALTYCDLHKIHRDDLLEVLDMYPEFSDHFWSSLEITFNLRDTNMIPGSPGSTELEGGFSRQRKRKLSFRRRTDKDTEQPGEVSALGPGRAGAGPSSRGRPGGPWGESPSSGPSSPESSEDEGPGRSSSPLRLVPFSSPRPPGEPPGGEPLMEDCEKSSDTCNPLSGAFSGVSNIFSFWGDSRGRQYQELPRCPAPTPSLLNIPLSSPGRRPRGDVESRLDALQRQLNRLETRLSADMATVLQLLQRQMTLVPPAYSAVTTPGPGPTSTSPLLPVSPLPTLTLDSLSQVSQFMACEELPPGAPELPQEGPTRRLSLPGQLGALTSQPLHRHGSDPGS
Put plainly: Evaluation of action on hERG IKr current (patch-clamp). The format is cell-based. The settings on record: HEK293 cells overexpressing hERG, maximum tail current, 10 minutes after application, read-out: 50% hERG channel inhibitory activity. The method, then: By using HEK293 cells overexpressing a human ether-a-go-go-related gene (hERG), the maximum tail current of the hERG IKr current induced by redepolarization pulse subsequent to depolarization pulse was measured by a patch-clamp method. The percent change (suppression rate) after 10 minutes from application of a test substance with respect to the maximum tail current before the application of the test substance was calculated (see, Biophysical Journal, vol. 74, pp. 230-241 (1998)).
On the technique in general: hERG is a cardiac potassium channel; its block is linked to QT prolongation.

In brackets after ≈: the same amount, converted by molar mass.

Consider `C[C@](O)(c1cc(Cl)c(NC(=O)NCc2ccc(Cl)cn2)c(Cl)c1)C(F)(F)F` [A crystal, A crystal of 1-[(5-chloro-2-pyridinyl)methyl]-3-{2,6-dichloro-4-[(2S)-1,1,1-trifluoro-2-hydroxy-2-propanyl]phenyl}urea], for which, in data set [1], the “appearance after storage (visual inspection)” value is “a change in appearance was not observed” and the “powder X-ray diffraction spectrum after storage” value is “an increase in the number of peaks was not observed”.
For the molecule `CC(O)(c1ccc(NC(=O)NCc2ccc(C(F)(F)F)cn2)cc1)C(F)(F)F` (centres unmarked) [Comparative Example 1, 1-[4-(1,1,1-trifluoro-2-hydroxy-2-propanyl)phenyl]-3-{[5-(trifluoromethyl)-2-pyridinyl]methyl}urea], the EC50 on Human KCNQ2/3 was > 10000 nM.
In the case of `O=C(Cc1ccc(F)cc1)Nc1c(Cl)cc(Cl)cc1Br` [Comparative Example 2, N-(2-bromo-4,6-dichlorophenyl)-2-(4-fluorophenyl)acetamide, reference compound], the EC50 at Human KCNQ2/3 was 200 nM. Moreover, the solubility at 5 h in “Solubility test” was < 5 µM.
As to `C[C@](O)(c1cc(Cl)c(NC(=O)NCc2ccc(Cl)cn2)c(Cl)c1)C(F)(F)F.O` [H crystal, Crystal of hydrate (H crystal) of 1-[(5-chloro-2-pyridinyl)methyl]-3-{2,6-dichloro-4-[(2S)-1,1,1-trifluoro-2-hydroxy-2-propanyl]phenyl}urea], in data set [2], the “percent change in mass” value is on record as 4%.
With `C[C@](O)(c1cc(Cl)c(NC(=O)NCc2ccc(Cl)cn2)c(Cl)c1)C(F)(F)F` [compound I, 1-[(5-chloro-2-pyridinyl)methyl]-3-{2,6-dichloro-4-[(2S)-1,1,1-trifluoro-2-hydroxy-2-propanyl]phenyl}urea], the EC50 on Human KCNQ2/3 was found to be 600 nM. In data set [3], the “residual ratio (stability against human liver microsomes)” value is 87%. In addition, the concentration for an effect of 20% (IC20) in data set [4] stood at 500 nM. The IC50 at hERG channel is > 10000 nM. This molecule also registered a solubility at 5 h in “Solubility test” of 98 µM (≈ 43.4 µg/mL).

By solubility is commonly meant the dissolved amount per volume that the medium holds. Read a low solubility as a poorly soluble substance. As usually defined, the IC20 is the point of the concentration-response curve where the effect stands at 20%.
